Assay results from patent publication US20220268782A1, “METHODS FOR PREDICTING AND TREATING CARDIAC DYSFUNCTION” (INSERM (INSTITUT NATIONAL DE LA SANTÉ EAT DE LA RECHERCHE …, priority 2019, published 2022).
Values belong to the compound of their own block, whether it stands above or below them.

Columns and labels:
Format in all cases: cell-based
[1] = tested on: C2C12 myoblasts; test: PA-induced senescence in C2C12 myoblasts (immunoblot of senescence markers, EdU incorporation); conditions: C2C12 cells
Description: (§1) Cells were washed briefly with ice-cold 1×PBS, scraped in 400 μL T-PER lysis buffer (ThermoFisher) supplemented with 0.1 mM phenylmethylsulphonyl fluoride (PMSF) and protease/phosphatase inhibitor cocktail tablet (ThermoFisher). Pulverised tissue samples (20-30 mg) were lysed in the same buffer accelerated by sonication and passing through a 21 G needle. To pellet any debris, lysates were centrifuged at 10,000 g for 10 minutes at 4° C., with the supernatant transferred to fresh tubes. Protein concentrations were determined with Bradford assay (Biorad) and lysates were diluted to equal concentration with lysis buffer. Protein lysates were then mixed with Laemmli buffer, vortexed and heated to 95° C. for 5 min. Equal amounts of protein lysates in parallel with protein molecular weight marker (ThermoFisher) were loaded onto pre-cast polyacrylamide gels (Nupage 10 or 12% Bis Tris gel, Novex, Invitrogen) and separated by electrophoresis at 200V for 1 hour. Proteins were transferred onto polyvinylidene difluoride (PVDF) membrane (Invitrogen) using an electrophoretic transfer cell (Mini Trans-Blot, Bio-Rad) in ice-cold transfer buffer (48 mM Tris base, […], 0.1% SDS, 20% methanol (v/v)) at 300 mA for 2 hours. Membranes were blocked in 1× skimmed milk (ThermoFisher) for 1 hour at room temperature, followed by overnight incubation with primary antibody diluted in blocking buffer at 4° C. Next day membranes were washed, followed by 60 minutes incubation in the corresponding horseradish peroxidase (HRP)-conjugated secondary antibody diluted 1:2000-10000 in blocking buffer (all Abcam). Blots were developed using enhanced chemiluminescence (ECL) reagents (normal, Prime & Select) and digital images were acquired using an imaging system (Azure Biosystems). Membranes were usually stripped of antibodies and reprobed with an antibody targeting a protein serving as loading control (α-actinin for hearts & β-actin for all others). For this procedure, membranes were placed in Guanidine-HCl-based stripping solution (6M Guanidine-HCl, 0.2% Nonidet P-40, 0.1M β-mercaptoethanol, 20 mM Tris-HCl, pH 7.5 and 100 mM 2-mercaptoethanol) and incubated for 10 minutes at room temperature with gentle agitation, followed by extensive washing and re-blocking.^5
(§2) C2C12 (ATCC® CRL-1772™) myoblasts maintained in DMEM supplemented with L-glutamine (2 mM), penicillin/streptomycin (1%) and 5% fetal bovine serum (FBS) were seeded either at a density of 5×10^4 cells (<50%) per well in 24-well plates or 10^4 cells in 4-well chamber slides. Cells were with L-phenylalanine (1-10 mM)+BH4 (10 μM) and incubation with increasing concentrations of N-acetylcysteine (0.5, 2.5, 5 mM) vs. vehicle overnight as indicated. Cells were analysed for oxidative stress with MitoSOX™ (mitochondrial superoxide; 5 μM, ThermoFisher Scientific), CellROX™ (cytosolic superoxide; 5 μM, ThermoFisher Scientific), gene or protein expression, or various metabolites (see below).

[2] = tested on: C2C12 myoblasts; test: Oxidative stress in C2C12 cells (CellROX cytosolic superoxide, MitoSOX mitochondrial superoxide, GSH)
Description: as §2
(§3) Levels of reduced glutathione (GSH; ThermoFisher), phenylalanine (BioVision) and tyrosine (BioVision) were determined from cells or plasma, with respective agents/kits following the manufacturer's recommendations. Specifically, GSH levels were estimated with the aid of ThiolTracker™ Violet fluorescent probe (ThermoFisher). Plasma and liver phenylalanine levels were determined using an enzyme-coupled, fluorometric method (BioVision). Briefly, samples were deproteinized via trichloroacetate precipitation, neutralised, tyrosinase-treated (to remove tyrosine that may interfere) and diluted to fit in the standard curve. Fluorescence reading took place at 587 nm after excitation at 535 nm. Levels of tyrosine in cells or conditioned media were determined after deproteinization using 10 kDa cut-off columns with an enzyme-coupled, colorimetric method with reading at 491 nm (BioVision).

[3] = tested on: AML-12 hepatocytes; test: AML-12 hepatocytes: p21, Pah immunoblot and tyrosine production; conditions: Nutlin3a vs. vehicle
Description: as §1
AML12 cells (ATCC® CRL-2254™) were maintained in DMEM/F-12 (1:1) culture media supplemented with 10% FBS, 10 μg/ml insulin, 5.5 μg/ml transferrin, 5 ng/ml selenium, 40 ng/ml dexamethasone and 1% penicillin/streptomycin. Cells were sub-cultivated from subconfluent flasks with a ratio from 1:4 to 1:8. For WB analysis, cells were plated on 6-well plates and harvested at 80-90% of confluence. AML12 cells were transfected with indicated siRNA (Table 2) at 80% confluence using Lipofectamine RNAiMAX Transfection Reagent (ThermoFischer Scientific 13778030) following the manufacturer's instructions. Transfection efficiency was constantly checked using BLOCK-IT Alexa Fluor Red Fluorescent Control (ThermoFischer Scientific 14750100).
as §3

SMILES: CC(=O)N[C@@H](CS)C(=O)O [NAC, N-acetylcysteine]
- p21 induction by PA ([1]; PA + N-acetylcysteine (0.5, 2.5, 5 mM), data not shown): failed to prevent
- cytosolic superoxide levels under PA treatment ([2]; PA plus co-treatment (BH4 10 μM or NAC), FIG. 1f): restored normal
- reduced glutathione (GSH) levels under PA treatment ([2]; PA plus co-treatment, data not shown): restored normal

- hepatocyte senescence (i.e. p-p53 and p21) ([3]; FIG. 4o): induced
SMILES: COc1ccc(C2=N[C@@H](c3ccc(Cl)cc3)[C@@H](c3ccc(Cl)cc3)N2C(=O)N2CCNC(=O)C2)c(OC(C)C)c1 [Nutlin3a]
- Pah ([3]; FIG. 4o): downregulated
- tyrosine production (tyrosine levels in media) ([3]; FIG. 4p): depressed

SMILES: N[C@@H](Cc1ccc(Cl)cc1)C(=O)O (racemic) [4-CPA, 4-chlorophenylalanine]
- BH4 antagonism of PA-dependent senescence ([1]; PA 5 mM + BH4 10 μM + 4-CPA 1.5 mM, FIG. 1c-d): reversed
- BH4 rescue of superoxide levels ([2]; PA + BH4 + 4-CPA, FIG. 1f): prevented
